Several values for one entry are separate records, joined by “and”; a condition that tells them apart may be missing. Equal values may be shown once.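 Results reflect a 48-hour exposure of cells in 96-well plates to compound at five concentrations. At the GI50, growth is halved. TGI marks complete inhibition of growth.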
Legend:
Test in all cases: growth of human tumour cells (NCI), 48 h
[1] = tested on: DU-145 prostate
[2] = tested on: IGROV1 ovarian
[3] = tested on: M14 melanoma
[4] = tested on: MDA-MB-231 breast
[5] = tested on: SF-268 CNS
[6] = tested on: SK-MEL-5 melanoma
[7] = tested on: SNB-75 CNS
[8] = tested on: SW-620 colon
[9] = tested on: UACC-257 melanoma
[10] = tested on: UACC-62 melanoma

Row | Compound | GI50 [1] | TGI [1] | GI50 [2] | TGI [2] [µM] | GI50 [3] | TGI [3] [µM] | GI50 [4] | TGI [4] | GI50 [5] | TGI [5] | GI50 [6] | TGI [6] | GI50 [7] | TGI [7] | GI50 [8] | TGI [8] [µM] | GI50 [9] | TGI [9] | GI50 [10] | TGI [10] [µM]
1 | O=C1/C(=C/c2ccc(Cl)cc2)CN(Cc2cn(CCCNc3ccnc4cc(Cl)ccc34)nn2)C/C1=C\c1ccc(Cl)cc1 | 1.16 µM | 2.47 µM | 1.29 µM | 3.12 | 1.72 µM | 3.68 | 0.757 µM | 2.45 µM | 0.54 µM | 2.01 µM | 1.72 µM | 3.14 µM | 1.39 µM | 2.92 µM | 0.316 µM | 1.37 | 1.72 µM | 3.25 µM | 1.77 µM | 3.35
2 | CS(=O)(=O)Nc1cc(-c2ccc3ncc(C#N)c(Nc4ccc(F)c(Cl)c4)c3c2)cnc1Cl | 0.242 µM | > 22.1 µM | 0.0609 µM | 0.372 | 0.193 µM | 1.92 | 0.237 µM | 0.786 µM | 0.133 µM |  | 0.0428 µM | 0.159 µM | 0.0251 µM | 0.507 µM | 0.107 µM | 4.31 | 0.194 µM | 2.14 µM | 0.073 µM | 0.596
3 | Cc1cc(O)ccc1C1(c2ccc(O)cc2C)OC(=O)c2ccccc21 | 18 µM | 31.9 µM | 21 µM | 47.5 | 18.3 µM | 37.1 | 21.4 µM | 48.9 µM | 19 µM | 43.9 µM | 18 µM | 32.1 µM | 15.1 µM | 29.5 µM | 16.9 µM | 35.8 | 23.8 µM | 46 µM | 18 µM | 35.9
4 | NC(=O)c1c[nH]c2ncnc(N)c12 | 44.6 µM | > 100 µM | 36.6 µM | > 100 | 47.9 µM | > 100 | 91.5 µM | > 100 µM | 39.3 µM | > 100 µM | 84.3 µM | > 100 µM | 13.3 µM | 59.3 µM | 27.1 µM | > 100 | > 100 µM | > 100 µM | 95.6 µM | > 100
5 | CC(C)c1cnc(-c2cc(Cl)ccc2F)cc1Nc1ccncc1C(=O)NC(CO)CO | 13.4 µM | 42 µM | 10.3 µM | 35.4 | 17.8 µM | 39 | 15.3 µM | 44.3 µM | 12.3 µM | 33 µM | 14.2 µM | 27.5 µM | 0.0515 µM | 25.9 µM | 19.6 µM | 39.5 | 16.3 µM | 33.7 µM | 15.1 µM | 29
6 | COc1ccc2[nH]c(C(=O)OCc3ccc4c(Br)cc(Br)c(O)c4n3)cc2c1 | 1.12 µM | 2.33 µM | 0.418 µM | 1.67 | 0.83 µM | 2.29 | 0.808 µM | 2.17 µM | 1.48 µM | 2.92 µM | 1.61 µM | 2.97 µM | 0.307 µM | 1.73 µM | 0.364 µM | 1.41 | 1.38 µM | 2.85 µM | 1.06 µM | 2.29
7 | COc1ccccc1CNCCCN1C(=O)c2ccc3c4c(ccc(c24)C1=O)C(=O)N(CCCNCCCCNCCCN)C3=O | 0.682 µM | 2.03 µM | 0.359 µM | 11.1 | 0.645 µM | 2.08 | 0.431 µM | 10.5 µM | 0.333 µM | 3.61 µM | 0.159 µM | 0.302 µM | 0.609 µM | 1.86 µM | 0.26 µM | 1.28 | 0.176 µM | 0.33 µM | 0.362 µM | 1.69
8 | Cn1c2c(c3ccccc31)CCN1C[C@@H]3CCCC[C@H]3C[C@@H]21 | 2.36 µM | 5.8 µM | 3.45 µM | > 54.6 | 2.95 µM | 18.4 | 2.88 µM | 8.66 µM | 3.22 µM | > 40.2 µM | 1.42 µM | 4.07 µM | 4.32 µM | > 100 µM | 3.43 µM | > 100 | 8.14 µM | > 100 µM | 4.19 µM | > 100
9 | CCN1CCN(Cc2ccc(NC(=O)Nc3nc(-c4cc(OC)c(OC)c(OC)c4)cs3)cc2C(F)(F)F)CC1 | 2.07 µM | 4.92 µM | 1.93 µM | 4.59 | 1.58 µM | 3.16 | 1.6 µM | 3.46 µM | 1.87 µM | 5.76 µM | 1.67 µM | 3.04 µM | 1.19 µM | 3.91 µM | 1.62 µM | 3.31 | 1.69 µM | 3.08 µM | 1.68 µM | 3.18
10 | CCOc1cc(Cl)c(C(C)NC(=O)c2cccc(OC)c2)cc1OCC (stereo not drawn) | 24.8 µM | > 100 µM | 17.5 µM | > 100 | 5.39 µM | > 100 | 11.1 µM | > 100 µM | 23.6 µM | > 100 µM | 7.39 µM | 24.6 µM | 4.79 µM | 49.9 µM | 4 µM | > 100 | 37 µM | > 100 µM | 8.81 µM | > 100
11 | CN1C(=O)C(N=Nc2ccc([N+](=O)[O-])cc2)SC1=S (stereo not drawn) | 7.11 µM and 22.1 µM | 41.6 µM and > 100 µM | 1.99 µM and 11.4 µM |  | 7.61 µM and 19.2 µM | > 100 | 13.3 µM and 11.7 µM | 51 µM and 44.3 µM | 6.1 µM and 17.3 µM | 99.5 µM and > 100 µM | 7.77 µM and 11.1 µM | 28.9 µM and 27 µM | 3.23 µM and 16.1 µM | 67.2 µM and 89.1 µM | 2.53 µM and 8.17 µM | > 100 | 3.63 µM and 10.9 µM | 27.1 µM and 54.4 µM | 3.29 µM and 2.85 µM | > 100
12 | Cn1cc(-c2csc(-c3ccccc3)n2)c2cccnc21 | 15 µM | 29.3 µM | 16.5 µM | 37.4 | 13.9 µM | 27.8 | 13.5 µM | 30.8 µM | 16.8 µM | 43 µM | 13.7 µM | 26.6 µM | 23.5 µM | 97.6 µM | 14.9 µM | 30.1 | 21.1 µM | 44.4 µM | 12.3 µM | 25.5

— PubChem BioAssay (NCI)
